Data as given in patent US7629358B2, “Compounds useful for the treatment of diseases” (Pfizer Inc, priority 2004, dated 2009).
pEC50: −log10 of the molar value.

Molecular target: T1, human β2 adrenergic receptor (Homo sapiens, UniProt P07550)
T1 construct: expressed in transfected cells; host or cells: CHO (Chinese Hamster Ovary) cells, CHOhβ2
Experiment: cAMP Flashplate assay in CHO cells recombinantly expressing the human β2 adrenergic receptor
Format: cell-based
Details: CHOhβ2 cells, 1 hour incubation, data as % Isoprenaline activity
Protocol: According to another alternative, the agonist potency for the β2 receptor of the compounds of the formula (1) may also be determined by the measure of the concentration of compound according to the present invention required to produce half maximal effect (EC50) for the β2 receptor.
10 mM/100% DMSO (dimethylsulfoxide) stock of compound is diluted to required top dose in 4% DMSO. This top dose is used to construct a 10-point semi-log dilution curve, all in 4% DMSO. Isoprenaline (Sigma, I-5627) was used as a standard in every experiment and for control wells on each plate. Data was expressed as % Isoprenaline response.
CHO (Chinese Hamster Ovary) cells recombinantly expressing the human β2 adrenergic receptor (from Kobilka et al., PNAS 84: 46-50, 1987 and Bouvier et al., Mol Pharmacol 33: 133-139 1988 CHOhβ2) were grown in Dulbeccos MEM/NUT MIX F12 (Gibco, 21331-020) supplemented with 10% foetal bovine serum (Sigma, F4135, Lot 90K8404 Exp 09/04), 2 mM glutamine (Sigma, G7513), 500 μg/ml geneticin (Sigma, G7034) and 10 μg/ml puromycin (Sigma, P8833). Cells were seeded to give about 90% confluency for testing.
25 μl/well each dose of compound was transferred into a cAMP-Flashplate® (NEN, SMP004B), with […] as basal controls and 100 nM Isoprenaline as max controls. This was diluted 1:2 by the addition of 25 μl/well PBS. Cells were trypsinised (0.25% Sigma, T4049), washed with PBS (Gibco, 14040-174) and resuspended in stimulation buffer (NEN, SMP004B) to give 1×10^6 cells/ml CHOhB2. Compounds were incubated with 50 μl/well cells for 1 hour. Cells were then lysed by the addition of 100 μl/well detection buffer (NEN, SMP004B) containing 0.18 μCi/ml ^125I-cAMP (NEN, NEX-130) and plates were incubated at room temperature for a further 2 hours. The amount of ^125I-cAMP bound to the Flashplate® was quantified using a Topcount NXT (Packard), normal counting efficiency for 1 minute. Dose-response data was expressed as % Isoprenaline activity and fitted using a four parameter sigmoid fit.

T1 sequence (P07550 whole entry): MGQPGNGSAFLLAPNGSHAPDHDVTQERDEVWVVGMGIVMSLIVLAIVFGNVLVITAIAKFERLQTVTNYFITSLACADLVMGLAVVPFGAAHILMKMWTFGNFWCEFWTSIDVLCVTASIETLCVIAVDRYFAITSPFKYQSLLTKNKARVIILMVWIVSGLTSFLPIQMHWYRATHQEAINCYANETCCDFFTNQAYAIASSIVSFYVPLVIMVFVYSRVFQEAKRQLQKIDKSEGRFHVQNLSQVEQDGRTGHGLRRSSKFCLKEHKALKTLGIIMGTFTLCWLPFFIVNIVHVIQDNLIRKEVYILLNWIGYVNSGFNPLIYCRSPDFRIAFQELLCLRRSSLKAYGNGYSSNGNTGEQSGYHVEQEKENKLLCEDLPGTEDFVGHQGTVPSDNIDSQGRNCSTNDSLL

Compound	pEC50
C[C@H](Cc1cccc(CC(=O)NC2CCCCCC2)c1)NC[C@H](O)c1ccc(O)c(CO)c1 [Example 1, N-cycloheptyl-2-{3-[(2R)-2-({(2R)-2-hydroxy-2-[4-hydroxy-3-(hydroxymethyl)phenyl]ethyl}amino)propyl]phenyl}acetamide]	9.84
C[C@H](Cc1cccc(C(=O)NCc2ccc(S(N)(=O)=O)cc2)c1)NC[C@H](O)c1ccc(O)c(CO)c1 [Example 62, N-[4-(aminosulfonyl)benzyl]-3-[(2R)-2-({(2R)-2-hydroxy-2-[4-hydroxy-3-(hydroxymethyl)phenyl]ethyl}amino)propyl]benzamide]	9.35
C[C@H](Cc1cccc(CC(=O)N(C)CCC2CCCCC2)c1)NC[C@H](O)c1ccc(O)c(CO)c1 [Example 16, N-(2-cyclohexylethyl)-2-{3-[(2R)-2-({(2R)-2-hydroxy-2-[4-hydroxy-3-(hydroxymethyl)phenyl]ethyl}amino)propyl]phenyl}-N-methylacetamide]	9.06
O=C(Cc1cccc(CCNC[C@H](O)c2ccc(O)c(CO)c2)c1)NCCc1ccccc1 [Example 46, 2-{3-[2-({(2R)-2-hydroxy-2-[4-hydroxy-3-(hydroxymethyl)phenyl]ethyl}amino)ethyl]phenyl}-N-(2-phenylethyl)acetamide]	9.08
CC(C)(Cc1cccc(C(=O)NCC2Cc3ccccc3C2)c1)NC[C@H](O)c1ccc(O)c(CO)c1 [Example 66]	8.94

More lines, now with the values ahead:

pEC50	Compound
9.87	CC(C)(Cc1cccc(C(=O)NCCC23CC4CC(CC(C4)C2)C3)c1)NC[C@H](O)c1ccc(O)c(CO)c1 [Example 114]
10.00	CC(C)(Cc1cccc(C(=O)NCCc2ccccc2C(F)(F)F)c1)NC[C@H](O)c1ccc(O)c(CO)c1 [Example 102]
10.10	CC(C)(Cc1cccc(CC(=O)N2CCc3ccccc3C2)c1)NC[C@H](O)c1ccc(O)c(CO)c1 [Example 23, 4{(1R)-2-[(2-{3-[2-(3,4-dihydroisoquinolin-2(1H)-yl)-2-oxoethyl]phenyl}-1,1-dimethylethyl)amino]-1-hydroxyethyl}-2-(hydroxymethyl)phenol]
10.19	C[C@H](Cc1cccc(CC(=O)NCC23CC4CC(CC(C4)C2)C3)c1)NC[C@H](O)c1ccc(O)c(CO)c1 [Example 14, N-(1-adamantylmethyl)-2-{3-[(2R)-2-({(2R)-2-hydroxy-2-[4-hydroxy-3-(hydroxymethyl)phenyl]ethyl}amino)propyl]phenyl}acetamide]
9.82	CC(C)(Cc1cccc(CC(=O)NCc2cc(C(F)(F)F)ccc2F)c1)NC[C@H](O)c1ccc(O)c(CO)c1 [Example 24, N-[2-fluoro-5-(trifluoromethyl)benzyl]-2-{3-[2-({(2R)-2-hydroxy-2-[4-hydroxy-3-(hydroxymethyl)phenyl]ethyl}amino)-2-methylpropyl]phenyl}acetamide]
9.36	Cc1cccc(CCNC(=O)c2cccc(CC(C)(C)NC[C@H](O)c3ccc(O)c(CO)c3)c2)n1 [Example 88]
10.12	CC(C)(Cc1cccc(C(=O)NCCc2cccc(F)c2)c1)NC[C@H](O)c1ccc(O)c(CO)c1 [Example 63, N-[2-(3-Fluorophenyl)ethyl]-3-[2-({(2R)-2-hydroxy-2-[4-hydroxy-3-(hydroxymethyl)phenyl]ethyl}amino)-2-methylpropyl]benzamide]

Test system: not given
Experiment: not given
Details: not given

Compound	melting point
CC(C)(Cc1cccc(C(=O)NCCc2ccc(Cl)cc2)c1)NC[C@H](O)c1ccc(O)c(CO)c1 [Example 33, N-[2-(4-chlorophenyl)ethyl]-3-{2-[(2R)-2-hydroxy-2-(4-hydroxy-3-hydroxymethyl-phenyl)ethylamino]-2-methylpropyl}benzamide]	139 to 140 °C
